Earlier results in publication PMC2211560 (PLoS Medicine, 2008).
Where two headings read alike, the source gives them in different places.

Key:
several tumor types = settings: Phase I trials; renal cell cancer, soft tissue sarcoma, cervical, endometrial, non-small cell cancer, non-Hodgkins lymphoma; cited from earlier work
[1] = system: cytochrome P450 3A (CYP3A); settings: human liver microsomal fractions; cited from earlier work
[2] = monkeys, cited from earlier work
[3] = cited from earlier work
[4] = cited from earlier work; remark: listed apart in the source
[5] = rats, cited from earlier work
[6] = rats and monkeys; daily for 14 days or daily for 5 days IV every 2 weeks, 4 courses; cited from earlier work
[7] = in vitro or in vivo; cited from earlier work
[8] = doses of 0.1-2.5 mg/kg, printed jointly for monkeys and rats

Compound: CO[C@H]1C[C@@H]2CC[C@@H](C)[C@@](O)(O2)C(=O)C(=O)N2CCCC[C@H]2C(=O)O[C@H]([C@H](C)C[C@@H]2CC[C@@H](OC(=O)C(C)(CO)CO)[C@H](OC)C2)CC(=O)[C@H](C)/C=C(\C)[C@@H](O)[C@@H](OC)C(=O)[C@H](C)C[C@H](C)/C=C/C=C/C=C/1C [CCI-779]
- Tumor regression (several tumor types): less than 50%
- metabolising enzyme [1]: primarily metabolized by cytochrome P450 3A (CYP3A)
- elimination half life [2, 8]: 8 to 16 h
- volume of distribution (Vdss) [2]: 1 to 5 L/kg
- MTD ([3]; daily x 5 every 2 weeks, heavily pretreated patients): 15 mg/m^2
- MTD ([3]; daily x 5 every 2 weeks, minimally pretreated patients): 19.1 mg/m^2
- MTD ([3]; weekly schedule, doses 7.5 mg/m^2 to 220 mg/m^2): has not yet been reached
- blood/plasma (B/P) ratio, mean (range) ([4]; 0.75 to 3.12 mg/m^2 daily x 5 schedule): 9.8 (2.4-20)
- mean exposure ratio (rapamycin to CCI-779) ([4]; blood, after CCI-779): ~3.2
- half-life ([4]; weekly dosing): 19.3 h
- half-life, range ([4]; weekly dosing): 13 to 39 h
- mean clearance ([4]; weekly dosing): 22 L/h
- volume of distribution at steady state ([4]; weekly dosing): 306 L
- elimination half life [5, 8]: 8 to 16 h
- volume of distribution (Vdss) [5]: 13 to 19 L/kg
- life-threatening toxicity [6]: No life-threatening toxicity was observed
- mutagenic effects [7]: no mutagenic effects
